≈ marks a conversion by molar mass, not a printed value. Where “and” joins values, the source holds several entries; their conditions need not be identical. Equal values may be shown once. Entries after “also recorded” stand apart in the source; their conditions may differ. Read-outs that look alike come from different tables or passages of the source.
Legend:
[1] = Cytotoxicity in human foreskin fibroblasts; settings: hff cells
[2] = tested on: Punta toro virus; settings: Vero
[3] = Cytotoxicity in Hep-2 cells; settings: human
[4] = tested on: HIV-1; assay: In vitro antiviral MTT CPE assay; format: cell-based
[5] = tested on: Yellow fever virus; settings: Vero
[6] = tested on: Paramyxo-3; assay: In vitro antiviral assay; format: cell-based
[7] = in vitro; settings: human, cem cells
[8] = tested on: Vaccinia virus; assay: microbe, parasite or virus in culture; format: cell-based, vaccinia virus (Lederle vaccine); settings: Vero
[9] = tested on: herpesvirus; settings: less effective by a factor; cited from earlier work
[10] = tested on: humoral immune response; settings: tumor bearing animals; cited from earlier work
[11] = tested on: L-aspartic acid transcarbamylase (ATCase); settings: cited from earlier work
[12] = tested on: duck hepatitis B virus (DHBV); assay: Duck hepatitis B (DHBV) in primary duck hepatocyte culture; format: cell-based
Method: Using the duck hepatitis model (DHBV), primary duck hepatocyte cells were treated with various concentrations of PALA (disodium salt) and evaluated for cytopathic effect. In addition, viral DNA replication was assessed using "slot" dot blots. […] These experiments were performed three times with confirmatory results.

[13] = tested on: CMV; assay: In vitro antiviral assay; format: cell-based
[14] = tested on: respiratory syncytial virus (RSV); assay: RSV infection in cotton rats, lung titre; format: in vivo, cotton rat; settings: for RSV lung titre: individual animal
Text: 1. 50 to 100 g cotton rats of either sex inoculated i.n. with RS A2 (pool 8-28-92) on day 0.
2. On day +1 animals were given placebo or PALA as follows:
3. All animals killed on day +4 and their lungs tested for RSV levels.

[15] = tested on: Punta toro virus; assay: microbe, parasite or virus in culture; settings: Vero
[16] = tested on: RNA and DNA viruses; format: cell-based; settings: most viruses of Table 3
[17] = tested on: Coxsackie B3; assay: In vitro antiviral assay; format: cell-based
[18] = tested on: Sandfly fever virus; assay: microbe, parasite or virus in culture; settings: sandfly fever Sicilian virus, Vero
[19] = tested on: Yellow fever virus; assay: microbe, parasite or virus in culture; settings: Vero
[20] = used alone; cited from earlier work
[21] = tested on: Venezuelan equine encephalitis virus; settings: Vero; 50% inhibition
[22] = tested on: vaccinia virus; settings: for Vaccinia Lesion Score: per monkey
[23] = tested on: Japanese encephalitis virus; settings: Vero; 50% inhibition
[24] = tested on: Sandfly fever virus; settings: Vero
[25] = day 8, PALA 125 mg/kg day 1 & 7
[26] = day 10, PALA 125 mg/kg day 1 & 7
[27] = day 10, PALA 50, rifampicin 10 mg/kg/d or both
[28] = day 13, PALA 125 mg/kg day 1 & 7
[29] = day 13, PALA 50, rifampicin 10 mg/kg/d or both

In the case of `O=C(O)C[C@H](NC(=O)CP(=O)(O)O)C(=O)O` [PALA], the CC50 [1] was over 320 µg/mL, the IC50 [2] was 18.4 µg/mL (≈ 72.1 µM) and the “TI (TC50/IC50)” value ([2]; 50% inhibition) was > 21.05 and > 17.35. For the same compound, the “TI(95)” value ([2]; 95% inhibition) was over 10.00, the CC50 [3] was over 320 µg/mL and the TI ([4]; CEM) was ~ 5.0. For the same compound, the IC50 ([4]; Human immunodeficiency virus 1, CCRF-CEM) was 12 µg/mL (≈ 47 µM), the IC50 [5] was 13.4 µg/mL (≈ 52.5 µM) and the “TI (TC50/IC50)” value ([5]; 50% inhibition) was > 19.22 and > 23.82. For the same compound, the “TI(95)” value ([5]; 95% inhibition) was > 10.68 and > 10.38, the IC50 ([6]; HEp-2) was 10 µg/mL (≈ 39.2 µM) and the TI ([6]; Hep-2) was 32.0. For the same compound, the CC50 [7] was 60 µg/mL (≈ 235 µM), the IC50 ([8]; Orthopoxvirus vaccinia) was 10 µg/mL (≈ 39.2 µM) and the TI [8] was 32.0. For the same compound, the “antiherpes effectiveness relative to parent PAA” value [9] was “over 200”, the “effect on humoral immune response” value [10] was “does not appear to significantly alter humoral immune response” and the “Ka, avidity relative to carbamyl phosphate” value [11] was 1000 ×. For the same compound, the inhibition at 0.5 µM ([12]; Duck hepatitis B virus, Hepatocyte) was 95%, the toxicity ([12]; high concentrations) was “little or no toxicity” and the TI ([13]; HFF) was 32.0. The IC50 ([13]; Human betaherpesvirus 5, HFF) was 10 µg/mL (≈ 39.2 µM), the “RSV lung titre, mean (SD)” value ([14]; PALA 3 mg/kg/day) was 3.3 (0.3) LOG10 /G Lung and the RSV lung titre ([14]; PALA 3 mg/kg) was 3.9 LOG10 and 3.5 LOG10 and 2.9 LOG10 and 3.0 LOG10. The “RSV lung titre, mean (SD)” value ([14]; PALA 10 mg/kg/day) was 2.8 (0.5) LOG10 /G Lung, the “decrease of viral titre over control” value ([14]; PALA 10 mg/kg/day) was 1 log10 and the RSV lung titre ([14]; PALA 10 mg/kg) was 2.4 LOG10 and 2.9 LOG10 and 2.5 LOG10 and 3.5 LOG10. For the same compound, the “efficacy against RSV” value ([14]; i.p.) was “more effective than ribavirin or combinational therapy; also recorded: statistically significant efficacy; also recorded: statistically better than ribavirin; also recorded: more effective as a single agent therapy in vivo against respiratory syncytial virus than ribavirin”, the IC50 [15] was 15.2 µg/mL (≈ 59.6 µM) and the therapeutic index [16] was “about 32”. For the same compound, the IC50 ([17]; Enterovirus B, B3, Vero) was about 33 µg/mL (≈ 129 µM), the TI ([17]; Vero) was 9.7 and the IC50 [18] was 20.9 µg/mL (≈ 81.9 µM). The IC50 [19] was 16.6 µg/mL (≈ 65.1 µM), the “clinical efficacy in cancer” value [20] was “relatively nonefficacious” and the “TI (TC50/IC50)” value [21] was 0.00. The gross pathology ([22]; PALA 125 mg/kg i.v. bolus) was “dark red discoloration of the liver”, the “lesion development” value ([22]; PALA 125 mg/kg, days 1 and 7) was “greater than what was seen in monkeys treated daily with PALA at a lower dose” and the “virus titers in skin” value ([22]; PALA 125 mg/kg, days 1 and 7) was “Higher titers”. For the same compound, the “lesion development” value ([22]; PALA 50, rifampicin 10 or both, mg/kg/day i.v.) was “effective in reducing lesion development and size”, the Weight ([22]; day 0, PALA 125 mg/kg day 1 & 7) was 3.2 kg and 3.4 kg and 4.4 kg and the Weight ([22]; day 0, PALA 50, rifampicin 10 mg/kg/d or both) was 2.4 kg and 3.4 kg and 2.6 kg. The “Vaccinia Lesion Score, group mean” value ([22]; day 3, PALA 125 mg/kg day 1 & 7) was 0.5, the “Vaccinia Lesion Score, group mean” value ([22]; day 3, PALA 50, rifampicin 10 mg/kg/d or both) was 0.1 and the “Vaccinia Lesion Score, group mean” value ([22]; day 6, PALA 125 mg/kg day 1 & 7) was 0.7. The “Vaccinia Lesion Score, group mean” value ([22]; day 6, PALA 50, rifampicin 10 mg/kg/d or both) was 0.6, the “Vaccinia Lesion Score, group mean” value ([22]; day 7, PALA 125 mg/kg day 1 & 7) was 0.9 and the “Vaccinia Lesion Score, group mean” value ([22]; day 7, PALA 50, rifampicin 10 mg/kg/d or both) was 0.5. For the same compound, the “Vaccinia Lesion Score, group mean” value [22, 25] was 1.3, the “Vaccinia Lesion Score” value [22, 25] was 0.7 and 1.8 and the “Vaccinia Lesion Score, group mean” value ([22]; day 8, PALA 50, rifampicin 10 mg/kg/d or both) was 0.5. For the same compound, the “Vaccinia Lesion Score, group mean” value ([22]; day 9, PALA 125 mg/kg day 1 & 7) was 1.2, the “Vaccinia Lesion Score, group mean” value ([22]; day 9, PALA 50, rifampicin 10 mg/kg/d or both) was 0.3 and the “Vaccinia Lesion Score, group mean” value [22, 26] was 0. The “Vaccinia Lesion Score” value [22, 26] was 0, the “Vaccinia Lesion Score, group mean” value [22, 27] was 0 and the Weight [22, 27] was 2.2 kg and 3.2 kg and 2.4 kg. The “Vaccinia Lesion Score” value [22, 27] was 0, the “Vaccinia Lesion Score, group mean” value [22, 28] was 0.5 and the “Vaccinia Lesion Score” value [22, 28] was 0.3 and 0.7. The “Vaccinia Lesion Score, group mean” value [22, 29] was 0, the “Vaccinia Lesion Score” value [22, 29] was 0 and the Weight ([22]; day 14, PALA 125 mg/kg day 1 & 7) was 3.2 kg and 4.4 kg. The Weight ([22]; day 14, PALA 50, rifampicin 10 mg/kg/d or both) was 2.0 kg and 3.2 kg and 2.4 kg, the Weight ([22]; day 21, PALA 125 mg/kg day 1 & 7) was 3.4 kg and 4.2 kg and the Weight ([22]; day 21, PALA 50, rifampicin 10 mg/kg/d or both) was 2.0 kg and 3.4 kg and 2.6 kg. The signs of toxicity ([22]; except one monkey at PALA 125 mg/kg bolus) was “No appreciable signs of toxicity”, the “Titer of vaccinia virus in skin biopsy” value ([22]; head prints day 6, PALA 125 mg/kg day 1 & 7) was 1.3 × 10^5 PFU/ml and 1.8 × 10^10 PFU/ml and the “TI (TC50/IC50)” value [23] was > 18.59 and > 18.80. The IC50 [24] was 14.9 µg/mL (≈ 58.4 µM) and the “TI (TC50/IC50)” value ([24]; 50% inhibition) was > 15.32 and > 21.54.
